In patent publication US20090093424A1, “Markers for melanoma” (University College Dublin, priority 2006, published 2009):

Test system: FABP5 gene expression in melanoma cell lines (WM793 and derivatives)
Assay: RT-PCR analysis via cycle limitation to assess effect of DAC treatment on FABP5 expression in melanoma cell lines
Type: cell-based, human
Protocol: Total RNA was extracted from untreated (−DAC) and treated (+DAC) cells and subjected to RT-PCR analysis via a cycle limitation method.
RNA extracts were pre-digested with DNase I prior to cDNA synthesis using the DNA-Free kit (Ambion). Single-stranded cDNA was synthesized from 1 μg total RNA using the ImProm-II Reverse Transcription kit (Promega). Recombinant RNasin Ribonuclease Inhibitor (20 U/20 μL reaction; Promega) was added to prevent RNase-mediated degradation. Two negative controls were also utilised, namely minus reverse transcriptase enzyme control and minus template control. Following inactivation of reverse transcriptase (RT) at 70° C. for 15 minutes, aliquots of generated single-stranded cDNA were subjected to polymerase chain reaction (PCR) amplification via a cycle limitation approach.
18 s was used as a control gene whose expression is unaffected by DAC treatment.
Primers used were as follows: […]

Nc1ncn([C@H]2C[C@H](O)[C@@H](CO)O2)c(=O)n1 [DAC, 5-aza-2′-deoxycytidine]
expression of the FABP5 gene after DAC treatment (derivative melanoma cell lines of WM793, treated (+DAC) vs untreated (-DAC), 18s control gene, FIG. 6): increased expression of the FABP5 gene
recovery of FABP5 expression by DAC treatment, aggressive derivative lines compared with parental line (more aggressive melanoma cell lines vs parental WM793, FIG. 6): recovered greater expression in these cells than in the parental melanoma cell line
